Test results from patent US20110236461A1, “METHODS FOR STIMULATING CHONDROGENESIS UTILIZING A POTASSIUM CHANNEL INHIBITOR” (priority 2008, published 2011).

T1: Kv4.2 potassium channel encoded by Kcnd2 (Homo sapiens, UniProt Q9NZV8)
T1 sequence (Q9NZV8 1-630): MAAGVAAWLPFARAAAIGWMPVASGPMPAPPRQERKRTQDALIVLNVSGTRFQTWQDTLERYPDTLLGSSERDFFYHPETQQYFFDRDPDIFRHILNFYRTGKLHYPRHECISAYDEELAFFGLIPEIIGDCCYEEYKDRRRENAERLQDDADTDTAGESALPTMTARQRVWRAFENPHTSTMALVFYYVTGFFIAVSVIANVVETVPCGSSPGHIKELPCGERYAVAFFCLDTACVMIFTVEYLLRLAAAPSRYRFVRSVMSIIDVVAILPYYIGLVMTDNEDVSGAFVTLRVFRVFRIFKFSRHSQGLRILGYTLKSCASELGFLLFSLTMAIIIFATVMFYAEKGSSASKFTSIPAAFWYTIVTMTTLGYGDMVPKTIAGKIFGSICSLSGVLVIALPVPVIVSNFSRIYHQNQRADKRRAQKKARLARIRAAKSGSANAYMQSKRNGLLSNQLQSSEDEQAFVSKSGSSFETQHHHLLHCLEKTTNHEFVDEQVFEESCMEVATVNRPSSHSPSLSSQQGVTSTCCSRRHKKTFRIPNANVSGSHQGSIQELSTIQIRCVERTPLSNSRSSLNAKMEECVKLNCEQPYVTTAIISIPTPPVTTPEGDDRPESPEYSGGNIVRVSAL


Columns and labels:
[1] = tested on: pGL3(4×48) reporter gene (Sox5/6/9 binding sites); assay: PLM transfection assay, pGL3(4×48) luciferase reporter; format: cell-based, murine; conditions: PLM cultures, relative to control
Protocol: (§1) Primary limb mesenchymal (PLM) cultures were established from CD-1 murine embryonic limbs (E11.5) as previously described (Hoffman et al., J. Cell 174:101-13 (2006); Weston et al., J. Cell Biol., 158:39-51 (2002)). Limb mesenchyme was dissociated by dispase treatment and a single cell suspension was obtained by filtration through a […] cell strainer (BD Biosciences). PLM cells were pelleted by centrifugation at 200×g and resuspended to produce a stock cell suspension at a concentration of 2.0×10^7 cells/ml. Cells were used for transfection (Example 2) or for establishment of cultures for alcian blue staining.
Stock plasmid DNAs were standardized to a concentration of 1 mg/ml. For co-transfections, a ratio of 3:1 gene of interest to reporter gene was used. Luciferase reporter genes consist of a firefly reporter gene, pGL3(4×48), and a Renilla (Renilla reniformis) luciferase reporter phRL-SV40 to normalize for transfection efficiency. Transfections were carried out using Effectene reagent (Qiagen). The pGL3(4×48) reporter contains four repeats of a Sox5/6/9 binding site. Reporter plasmids containing Sox5/6/9 binding sites (pGL3[4×48]) were previously described (Weston et al., J. Cell Biol., 158:39-51 (2002)).
This dose range is consistent with previous studies on butamben binding and inhibition of potassium channels. […]

[2] = tested on: primary limb mesenchymal (PLM) cultures; assay: alcian blue staining of PLM cultures; format: cell-based, murine; conditions: PLM transfection assays and alcian blue staining experiments
Protocol: Primary limb mesenchymal (PLM) cultures were established from CD-1 murine embryonic limbs (E11.5) as previously described (Hoffman et al., J. Cell 174:101-13 (2006); Weston et al., J. Cell Biol., 158:39-51 (2002)). Limb mesenchyme was dissociated by dispase treatment and a single cell suspension was obtained by filtration through a […] cell strainer (BD Biosciences). PLM cells were pelleted by centrifugation at 200×g and resuspended to produce a stock cell suspension at a concentration of 2.0×10^7 cells/ml. Cells were used for transfection (Example 2) or for establishment of cultures for alcian blue staining. For the latter, 10 μl of PLM cells were spotted into the well of a 24-well plate, and allowed to adhere for 1 h. Culture medium consisting of 60% Ham's F12 nutrient mix/40% Dulbecco's modified Eagle's medium (DMEM) and supplemented with 10% FBS (Qualified, Invitrogen) was added to each well; this time was considered T=0. Cultures were maintained for a period of up to 4 days, and culture media was replaced on alternate days to minimize handling. For alcian blue staining, culture medium was aspirated and cells were washed once with PBS. Cultures were fixed in 95% ethanol at −20° C. overnight. Fixative was removed by aspiration and cells were sequentially washed once with PBS, followed by 0.2M HCl. Cells were stained overnight with a 1% alcian blue solution prepared in 0.2M HCl.

pGL3(4×48) reporter = pGL3(4×48) reporter in high-density murine limb bud-derived cultures, compounds alone or in combination; format: cell-based; conditions: BMP4 20 ng/ml, BAB 10 μM, 4310 100 nM; 24 h and 72 h after treatment; normalized to untreated controls
Protocol: High-density murine limb bud-derived cultures were established as previously described (Hoffman 2006). Media was replaced every two days. Cells were transfected on day 0 with pGL3(4×48) (reporter) and phRL-SV40 (to normalize transfection efficiency) plasmids using Effectene transfection reagent (Qiagen). Twenty-four hours after transfection, cells were treated with the following final concentrations of compounds, either individually or in combination: BMP4 (20 ng/ml), butamben (BAB) (10 μM), and the pan-RAR antagonist 4310 (100 nM). Lysates were collected at 24 h and 72 h after treatment. Luciferase activity was measured using the Dual-Luciferase® kit according to the manufacturer's instructions (Promega). Reporter activity was normalized to untreated controls (−) on the same day.

Mmp13 = Mmp13 mRNA in murine limb bud-derived high-density cultures, TaqMan real-time PCR; format: cell-based; conditions: BMP4 20 ng/ml, BAB 10 μM, 4310 100 nM; RNA at five and ten days; normalized to 5-day control
Protocol: Murine limb bud-derived high-density cultures were established as previously described (Hoffman 2006). Media was replaced every three days. After 24 hours of culture, compounds were added at the following final concentrations: BMP4 (20 ng/ml), BAB (10 μM), and 4310 (100 nM). After 72 hours of culture, ascorbic acid and beta-glycerol phosphate were added to the culture at final concentrations of 126 μM and 1 mM, respectively. RNA was isolated from cultures at five and ten days. Gene expression was assessed using real-time PCR with TaqMan® probe and primer sets (Applied Biosystems, Taqman Gene Expression Assay Mm00439491_m1). All gene expression levels were normalized to the 5-day control (set at 100%). Results are shown in FIG. 7 and are the average of two replicates.

[3] = target: T1, Kv4.2 potassium channel encoded by Kcnd2; conditions: Winkelman et al. 2005; cited from earlier work
Sox9 = Sox9 expression in PLM cultures by RT-qPCR; format: cell-based, murine; conditions: PLM cultures treated for 1 or 3 days, relative to control
Protocol: as §1
To follow the expression of transcripts for Kcnd2 and Sox9, quantitative real-time PCR was performed using the 7500 Fast Sequence Detection System (Applied Biosystems). The primer/probe set used for detection of Sox9 was as described in Weston et al., J. Cell Biol., 158:39-51 (2002). For detection of all other transcripts, TaqMan Gene Expression Assays (Applied Biosystems) were used. Total RNA was isolated from primary cultures, and an aliquot was reverse transcribed to cDNA using a High Capacity cDNA Archive kit (Applied Biosystems). Quantification was performed using ˜10 ng of total RNA and the expression of all genes relative to endogenous rRNA was determined using TaqMan Ribosomal Control Reagents (Applied Biosystems). […]

[4] = tested on: voltage-gated potassium channel Kv1 and 4 classes; conditions: Winkelman et al. 2005; Beekwilder et al. 2003; cited from earlier work

Molecule | activity of chondrogenic responsive reporter gene pGL3(4×48) [1] | chondrogenic activity [2] | pGL3(4×48) reporter gene activity (pGL3(4×48) reporter) | Mmp13 expression (Mmp13) | block of Kv4.2 potassium channel [3] | Sox9 expression (Sox9) | block of voltage-gated potassium channel Kv1 and 4 classes [4]
CCCCOC(=O)c1ccc(N)cc1 [butamben, butyl 4-aminobenzoate] | significantly increase | low micromolar concentrations of butamben stimulate chondrogenic activity | increased | markedly decreased | blocked | increased Sox9 expression | blocks
Nc1ccncc1 [4-AP, 4-aminopyridine] | significantly induces |  |  |  |  |  | 
BMP4: bone morphogenetic protein-4 (protein, UniProt P12644 293-408, looked up) Bone morphogenetic protein 4: SPKHHSQRARKKNKNCRRHSLYVDFSDVGWNDWIVAPPGYQAFYCHGDCPFPLADHLNSTNHAIVQTLVNSVNSSIPKACCVPTELSAISMLYLDEYDKVVLKNYQEMVVEGCGCR |  |  | increased | increased |  |  | 
